The values below come from BindingDB's records for patent US20250236619 (Chia Tai Tianqing Pharmaceutical Group Co., 2025).

Each structure is given as a SMILES string. pIC50: −log10 of the molar value.

Mitogen-activated protein kinase kinase kinase kinase 1, sequence (Q92918 whole entry): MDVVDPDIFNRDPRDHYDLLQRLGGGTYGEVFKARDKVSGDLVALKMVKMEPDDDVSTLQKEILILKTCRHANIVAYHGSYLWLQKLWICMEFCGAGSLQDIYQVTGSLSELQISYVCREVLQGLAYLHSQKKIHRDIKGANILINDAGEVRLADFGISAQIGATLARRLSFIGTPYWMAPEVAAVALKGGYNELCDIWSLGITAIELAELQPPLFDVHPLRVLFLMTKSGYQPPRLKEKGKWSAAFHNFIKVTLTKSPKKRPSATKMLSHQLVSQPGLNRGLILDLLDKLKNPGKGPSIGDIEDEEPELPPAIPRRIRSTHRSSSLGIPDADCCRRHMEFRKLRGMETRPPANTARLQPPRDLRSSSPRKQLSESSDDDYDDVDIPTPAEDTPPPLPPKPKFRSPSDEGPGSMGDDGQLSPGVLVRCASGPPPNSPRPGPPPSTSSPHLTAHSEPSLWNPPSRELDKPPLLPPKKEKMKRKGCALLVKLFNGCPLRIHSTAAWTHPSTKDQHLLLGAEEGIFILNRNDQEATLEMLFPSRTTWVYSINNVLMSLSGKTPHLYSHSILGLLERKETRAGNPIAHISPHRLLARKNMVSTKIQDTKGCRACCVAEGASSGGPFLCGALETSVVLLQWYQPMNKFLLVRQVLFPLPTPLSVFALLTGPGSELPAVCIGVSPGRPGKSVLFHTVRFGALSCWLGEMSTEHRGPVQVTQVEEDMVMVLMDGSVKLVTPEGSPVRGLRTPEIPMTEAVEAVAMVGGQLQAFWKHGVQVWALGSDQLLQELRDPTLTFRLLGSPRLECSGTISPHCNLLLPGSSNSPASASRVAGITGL

This assay concerns the target Mitogen-activated protein kinase kinase kinase kinase 1 (Homo sapiens, UniProt Q92918). Kind of assay: Assay for In Vitro Inhibitory Activity Against HPK1 Kinase. How it is done: A kinase buffer (Enzymatic buffer 5×) was diluted to 1×, and 10 mM MgCl2, 1 mM DTT, and 0.005% Tween 20 were added. A 100 ng/μL HPK1 (Life technology) stock solution was diluted with the kinase buffer to obtain a 1.67×, 1.67 ng/μL working solution (final concentration: 1 ng/μL), and the working solution was seeded in a 384-well plate at 6 μL/well. Different compounds dissolved in DMSO were added to the wells using a nanoliter pipettor to obtain final concentrations of the compounds of 1000 nM to 0.244 nM (4-fold serial dilution, 7 concentrations in total), and blank control wells (without enzyme) and negative control wells (with enzyme, plus vehicle DMSO) were set; the wells were set in duplicate. After the enzyme and the compounds were incubated at room temperature for 1 h, a 5×, 5 mM ATP dilution (final concentration: 1 mM) in the kinase buffer was mixed with a 5×, […] (Cisbio, STK Substrate 1-biotin; final concentration: 500 nM) in equal volume, and the mixture was added to the plate at 4 µL/well. The plate was sealed with a film and then incubated at room temperature for 2 h. An assay antibody solution was prepared by mixing the antibody STK Antibody-cryptate (Cisbio, 5 μL/test) and a 4×, 500 nM Streptavidin-XL665 (Cisbio; final concentration: 125 nM) in equal volume and added to the plate at 10 μL/well. The plate was incubated at room temperature for 1 h. The signal values ([…]) were measured using a PE Envision multimode microplate reader, and IC50 was calculated by four-parameter fitting.
On to `[2H]C([2H])(c1nc(Nc2cnc(-c3ccnc4c3c3c(n4C)CCC3)c3c2C(=O)NC3)ccc1C1CCOCC1)N(C)C` [US20250236619, Compound I-17], for which the pIC50 was 8.77.

Regarding `CN(C)Cc1nc(Nc2ccc(-c3ncnc4[nH]c5c(c34)CCC5)c3c2C(=O)NC3)ccc1C1CCOCC1` [US20250236619, Compound I-24], the pIC50 was 7.96.

On to `CN(C)Cc1nc(Nc2cnc(-c3nnc4ccc5c(n34)CCC5)c3c2C(=O)NC3)ccc1C1CCOCC1` [US20250236619, Compound I-25], for which the pIC50 is 7.49. This pIC50 is 0.47 log units lower than that of the molecule before.

On to `CN(C)Cc1nc(Nc2ccc(-c3cnn4c3CC3(CC3)C4)c3c2C(=O)NC3)ccc1C1CCOCC1` [US20250236619, Compound I-34], for which the pIC50 is 8.68.

In turn, `CN(C)Cc1nc(Nc2ccc(-c3cnc4ccc5c(n34)CCO5)c3c2C(=O)NC3)ccc1C1CCOCC1` [US20250236619, Compound I-35] had a pIC50 of 8.19.

`CN(C)Cc1nc(Nc2ccc(-c3cnn4ccc5occc5c34)c3c2C(=O)NC3)ccc1C1CCOCC1` [US20250236619, Compound I-38] had a pIC50 of 8.77.

`CN(C)Cc1nc(Nc2cnc(-c3cnn4ccc5occc5c34)c3c2C(=O)NC3)ccc1C1CCOCC1` [US20250236619, Compound I-46] had a negative logarithm of the IC50 (pIC50) of 8.68.

On to `CN(C)Cc1nc(Nc2cnc(-c3cnn4ccc5occc5c34)c3c2C(=O)NC3)ccc1N1CCOCC1` [US20250236619, Compound I-47], for which the negative logarithm of the IC50 (pIC50) is 8.33.

Molecule `CN(C)Cc1nc(Nc2ccc(-c3cnc4cnc5occc5n34)c3c2C(=O)NC3)ccc1C1CCOCC1` [US20250236619, Compound I-48] gave a pIC50 of 8.59.

For the molecule `CN(C)Cc1nc(Nc2ccc(-c3cnc4ccc5occc5n34)c3c2C(=O)NC3)ccc1N1CCN(C)C1=O` [US20250236619, Compound I-50], the pIC50 is 7.54. This pIC50 is 1.05 log units lower than that of the molecule before.

Consider `CN(C)Cc1nc(Nc2ccc(-c3cnc4ccc5occc5n34)c3c2C(=O)NC3)ccc1N1CCCC1=O` [US20250236619, Compound I-52], for which the pIC50 was 7.44.

`[2H]C([2H])(c1nc(Nc2ccc(-c3cnn4c3CC3(CC3)C4)c3c2C(=O)NC3)ccc1C1CCOCC1)N(C)C` [US20250236619, Compound I-53] showed a pIC50 of 8.57.

In the case of `CN(C)Cc1nc(Nc2ccc(-c3cnc4cnc5occc5n34)c3c2C(=O)NC3)ccc1C1CCOC1` (stereo not drawn) [US20250236619, Compound I-54], the negative-log IC50 (pIC50) was 8.18.

The molecule `CN(C)Cc1nc(Nc2cnc(-c3cnn4c3CC3(CC3)C4)c3c2C(=O)NC3)ccc1C1CCOCC1` [US20250236619, Compound I-55] showed a pIC50 of 7.82.

Turning to `O=C1NCc2c(-c3cnn4ccc5occc5c34)ccc(Nc3ccc(N4CCOCC4)c([C@H]4CCCN4)n3)c21` [US20250236619, Compound I-57], the pIC50 was 7.77.

In turn, `CN(C)Cc1nc(Nc2ccc(-c3cnc4cnc5occc5n34)c3c2C(=O)NC3)ccc1C1CC(=O)N(C)C1` (stereo not drawn) [US20250236619, Compound I-58] had a pIC50 of 8.25.

For the molecule `CN(C)Cc1nc(Nc2ccc(-c3cnn4ccc5occc5c34)c3c2C(=O)NC3)ccc1C1CC(=O)N(C)C1` (stereo not drawn) [US20250236619, Compound I-59], the pIC50 was 8.64.

For the molecule `CN(C)Cc1nc(Nc2ccc(-c3cnn4ccc5occc5c34)c3c2C(=O)NC3)ccc1C1CCCO1` (stereo not drawn) [US20250236619, Compound I-64], the pIC50 is 8.54. The pIC50 values of the last two molecules are within 0.2 log units of each other.

`CN(C)Cc1nc(Nc2ccc(-c3cnc4cnc5occc5n34)c3c2C(=O)NC3)ccc1C1CCCO1` (stereo not drawn) [US20250236619, Compound I-65]: the pIC50 was 7.68.

The molecule `CN(C)Cc1nc(Nc2ccc(-c3cnc4ccc5occc5n34)c3c2C(=O)NC3)ccc1C1CCN(C)C(=O)C1` (stereo not drawn) [US20250236619, Compound I-66] had a pIC50 of 8.60.

Molecule `CN(C)Cc1nc(Nc2ccc(-c3cnn4c3CC3(CC3)C4)c3c2C(=O)NC3)ccc1C1CCN(C)C(=O)C1` (stereo not drawn) [US20250236619, Compound I-67] had a pIC50 of 8.34.

`CC(=O)N(C)c1ccc(Nc2ccc(-c3cnn4ccc5occc5c34)c3c2C(=O)NC3)nc1CN(C)C` [US20250236619, Compound I-70] showed a pIC50 of 8.12.

For `CN(C)Cc1nc(Nc2ccc(-c3cnn4ccc5occc5c34)c3c2C(=O)NC3)ccc1N1CCN(C)C(=O)C1` [US20250236619, Compound I-76], the pIC50 is 8.74.

With `CN(C)Cc1nc(Nc2ccc(-c3cnc4cnc5occc5n34)c3c2C(=O)NC3)ccc1C1CCN(C)CC1` [US20250236619, Compound I-80], the pIC50 was 8.55.

`CN(C)Cc1nc(Nc2ccc(-c3cnn4ccc5occc5c34)c3c2C(=O)NC3)ccc1-c1ccn(C)c(=O)c1` [US20250236619, Compound I-81]: the pIC50 was 8.70. The pIC50 values of the last two molecules are within 0.2 log units of each other.

For the molecule `CN(C)Cc1nc(Nc2ccc(-c3cnn4ccc5occc5c34)c3c2C(=O)NC3)ccc1C1CCN(C)CC1` [US20250236619, Compound I-83], the pIC50 was 8.70.

`CN(C)Cc1nc(Nc2ccc(-c3ccnc4c3c3c(n4C)CCC3)c3c2C(=O)NC3)ccc1C1CCN(C)C(=O)C1` (stereo not drawn) [US20250236619, Compound I-84] showed a pIC50 of 8.59. This pIC50 and that of the molecule before are within 0.2 log units of each other.

In turn, `CNCc1nc(Nc2ccc(-c3cnn4ccc5occc5c34)c3c2C(=O)NC3)sc1C1CCOCC1` [US20250236619, Compound I-85] showed a pIC50 of 8.42.
